Here are results for 12 compounds from PubChem BioAssay AID1845212 (Molecular Pharmacology Branch, DTP, NCI, 2023).

The viability, T/C is the ratio of treated to control. Broadly, the IC50 is the midpoint of a concentration-inhibition curve.

Several values for one entry are separate records, joined by “and”; a condition that tells them apart may be missing. Equal entries are not always repeated. Activity calls are given as the source filed them. How the source made its calls: active means viability on the fitted dose curve at most 10% of control; inactive means the rest.

The subject of the test is NCI-H719 tumor spheroids, viability. In words: Anticancer human tumor NCI-H719 cell line growth inhibition.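 On IC50: spheroids exposed to compounds for seven days.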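 On viability, T/C: spheroids exposed to compounds for seven days; percent viability relative to DMSO vehicle control as 100%.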 As to conditions: spheroids with HUVEC and MSC; for viability, T/C: stronger effect = lower value. An excerpt: Multicellular complex tumor spheroid response to DNA repair inhibitors in combination with DNA-damaging drugs
This study explores the anticancer activities of DNA-damaging drugs and inhibitors of DNA damage repair, both as single agents and in combinations. Complex tumor spheroids comprised of malignant cells, endothelial cells and mesenchymal stem cells served as an in vitro model for human solid tumors. This model system incorporates physiologically relevant features and patient-derived or established malignant cell lines with clinically relevant genetic alterations from many tumor types. Twenty-six patient-derived or established malignant cell lines were evaluated representing sarcoma, melanoma, small cell lung cancer (SCLC), non-small cell lung cancer (NSCLC), as well as bladder, ovarian and pancreatic cancers. The concentration ranges selected for each drug and investigational agent were based upon clinically achievable concentrations if the clinical Cmax of the agent was known.
Compounds. The drugs and compounds olaparib (NSC753686), talazoparib (NSC767125), berzosertib (NSC777718), elimusertib (NSC800525), nedisertib (NSC802822), VX-984 (NSC792969), AZD-1390 (NSC803789), temozolomide (NSC362856), topotecan (NSC609699), trabectedin (NSC813783), staurosporine (NSC755774), and gemcitabine (NSC613327) were obtained from the National Cancer Institute (NCI) Developmental Therapeutics Program Chemical Repository. The FDA-approved anticancer drug set is available from the Developmental Therapeutics Program at https://dtp.cancer.gov/organization/dscb/obtaining/available_plates.htm. […] The stock solutions were prepared in dimethyl sulfoxide (DMSO, Sigma-Aldrich, St. Louis, MO, cat. D2650) at 400-fold the tested concentration and stored at -70 degrees C. Prior to their use, the stock solutions were diluted in fresh medium and the final DMSO concentration in the assay was 0.25% (v/v). All drugs and investigational agents were tested over a range starting from a high concentration at or near the clinical Cmax and decreasing in half-log increments. If the clinical Cmax for an agent had not been determined, the highest concentration tested was 10 microM.
Cell Lines. The patient-derived cancer cell (PDC) lines: 156681-154-R-J1-PDC, 283228-195-R-J1-PDC, 287954-098-R-J1-PDC, 292921-168-R-J2-PDC, 349418-098-R-PDC, 425362-245-T-J1-PDC, 556581-035-R-J1-PDC, and BL0293-F563-PDC were received from the NCI Patient-Derived Models Repository (PDMR, https://pdmr.cancer.gov). The established cell lines HS-SY-2 (RRID:CVCL_8719), MPNST, and SYO-1 (RRID:CVCL_7146) were obtained from the Sloan Kettering Institute. The alveolar soft parts sarcoma cell line ASPS-1 (RRID:CVCL_S738) was established at the NCI and grown from internal seed stocks. The following established cell lines were purchased from the American Type Culture Collection (ATCC, Manassas, VA): G-401 (ATCC, cat. CRL-1441, RRID:CVCL_0270), SW982 (ATCC, cat. HTB-93, RRID:CVCL_1734), VA-ES-BJ (ATCC, cat. CRL-2138, RRID:CVCL_1785), NCI-H719 (ATCC, cat. CRL-5837, RRID:CVCL_1582), NCI-H196 (ATCC, cat. CRL-5823, RRID:CVCL_1509), NCI-H841 (ATCC, cat. CRL-5845, RRID:CVCL_1595), NCI-H1618 (ATCC, cat. CRL-5879, RRID:CVCL_1480), NCI-H1876 (ATCC, cat. CRL-5902, RRID:CVCL_1503), DMS 114 (ATCC, cat. CRL-2066; RRID:CVCL_1174), NCI-H211 (ATCC, cat. CRL-5824; RRID:CVCL_1529), and SW 1271 (ATCC, cat. CRL-2177, RRID:CVCL_1716). The small cell lung cancer cell line COR-L88 was purchased from Sigma-Aldrich (cat. 92031917-1VL, RRID:CVCL_1141). The non-small cell lung cancer cell lines NCI-H226 (RRID:CVCL_1544) and NCI-H322M (RRID:CVCL_1557) were established at the NCI and grown from internal seed stocks. Pooled donor human umbilical vein endothelial cells (HUVEC, Lonza, cat. CC-2519) and human mesenchymal stem cells (hMSC, Lonza, cat. PT-2501) were purchased from Lonza (Walkersville, MD).
Cell Culture. All cells were maintained in an incubator at 37 degrees C and 5% CO2 with 95% humidity. […]

The mark [1] stands for this setting: compound alone, run of 12/16/2019.

With `CC(C)n1c(=O)n(C)c2cnc3cc(F)c(-c4ccc(OCCCN5CCCCC5)nc4)cc3c21`, the viability, T/C (compound 0.0316 µM) is 82.1% and 106% and 81.7%; the viability, T/C (compound 0.1 µM) is 93.8% and 98.1% and 94.4%; the viability, T/C (compound 0.316 µM) is 116% and 107% and 117%; the viability, T/C (compound 1 µM) was 81.4% and 94.8% and 103%; the viability, T/C (compound 3.16 µM) is 85.7% and 142% and 110%; the viability, T/C (compound 10 µM) is 108% and 104% and 123%. Moreover, where the note is “curve of compound”, the IC50 is over 10000 nM.
For `CC1COCCN1c1cc(-c2ccnn2C)c2ccnc(-c3ccn[nH]3)c2n1` (stereo unspecified), the viability, T/C was 59.9% and 73.9% and 62.1% (compound 0.0316 µM); 60.1% and 43.6% and 50.1% (compound 0.1 µM); 23.8% and 26.8% and 29.1% (compound 0.316 µM); 11.2% and 14.3% and 10.5% (compound 1 µM); 11.6% and 8.2% and 8.17% (compound 3.16 µM); 13.3% and 9.71% and 10.8% (compound 10 µM). Besides, where the note is “curve of compound”, the IC50 is 137 nM and 80.4 nM and 106 nM.
For the compound `CC[C@@]1(O)C(=O)OCc2c1cc1n(c2=O)Cc2cc3c(CN(C)C)c(O)ccc3nc2-1`, the viability, T/C was 44.5% [middle of 10 runs] (compound 0.003 µM); 6.14% [middle of 10 runs] (compound 0.00949 µM); 5.56% [middle of 10 runs] (compound 0.03 µM); 6.96% [middle of 10 runs] (compound 0.0949 µM); 7.47% [middle of 10 runs] (compound 0.3 µM). The half-inhibitory concentration (IC50) by setting is: (compound alone, run of 11/07/2019) < 3 nM and 3.17 nM; under setting [1], 3.67 nM and 3.31 nM and < 3 nM.
As to `CNCc1ccc(-c2cc(-c3nc(-c4ccc(S(=O)(=O)C(C)C)cc4)cnc3N)on2)cc1`, the viability, T/C (compound 0.00949 µM) is 96.3% and 108% and 109%; the viability, T/C (compound 0.03 µM) was 103% (2×) and 107%; the viability, T/C (compound 0.0949 µM) was 57.4% and 81.5% and 93.3%; the viability, T/C (compound 0.3 µM) is 41.9% and 37.8% and 43.2%; the viability, T/C (compound 0.949 µM) was 9.72% and 6.55% and 13.6%. In addition, the IC50 (curve of compound) was 158 nM and 216 nM and 264 nM.
With `COc1cc(C)[nH]c(=O)c1CN1CCc2c(Cl)cc(C(OC)C3COC3)c(Cl)c2C1=O` (stereo unspecified), the viability, T/C runs as follows: (compound 0.0316 µM) 100% and 103% and 101%; (compound 0.1 µM) 102% and 75.5% and 111%; (compound 0.316 µM) 108%; (compound 1 µM) 109% and 114% (2×); (compound 3.16 µM) 102% and 113% and 106%; (compound 10 µM) 114% and 125% and 109%. The half-inhibitory concentration (IC50) (curve of compound) was over 10000 nM.
With `COc1cc2c(cc1O)CCNC21CSC2c3c(OC(C)=O)c(C)c4c(c3C(COC1=O)N1C(O)C3Cc5cc(C)c(OC)c(O)c5C(C21)N3C)OCO4` (stereo unspecified), the viability, T/C (compound 94.9 pM) was 36.8% [middle of 10 runs]; the viability, T/C (compound 0.0003 µM) is 8.36% [middle of 10 runs]; the viability, T/C (compound 0.000949 µM) is 7.96% [middle of 10 runs]; the viability, T/C (compound 0.003 µM) is 0.83% [middle of 9 runs]. Under setting [1], the IC50 is 0.0663 nM [middle of 10 runs].
On to `COc1ccc([C@@H](O)c2cc(-c3ncnc4cc(N5CCOCC5)ccc34)c(F)cc2Cl)nn1`, for which the viability, T/C runs as follows: (compound 0.0316 µM) 103% and 90.6% and 75%; (compound 0.1 µM) 109% and 83.6% and 83.3%; (compound 0.316 µM) 79.3% and 76.5% and 84.2%; (compound 1 µM) 65.6% and 58.1% and 69%; (compound 3.16 µM) 47.3% and 57.3% and 87.8%; (compound 10 µM) 15.5% and 53.7% and 58.8%. The concentration for half-maximal inhibition (IC50) (curve of compound) was 2360 nM and > 10000 nM.
Regarding `Cc1cc(C)c(CNC(=O)c2cc(-c3ccc(CN4CCOCC4)cc3)cc3c2cnn3C2CCCC2)c(=O)[nH]1`, the viability, T/C was 80.8% and 102% and 115% (compound 0.0316 µM); 83.4% and 99.2% and 117% (compound 0.1 µM); 84.8% and 97.1% and 111% (compound 0.316 µM); 79.3% and 108% and 121% (compound 1 µM); 114% and 92.6% and 103% (compound 3.16 µM); 77.5% and 87.8% and 72.1% (compound 10 µM). Also, under “curve of compound”, the half-maximal inhibitory concentration (IC50) was over 10000 nM.
For `Cc1sc2c(c1C)C(c1ccc(Cl)cc1)=NC(CC(=O)Nc1ccc(O)cc1)c1nnc(C)n1-2` (stereo unspecified), the viability, T/C is, setting by setting: (compound 0.00949 µM) 95.3% and 98.3% and 94.6%; (compound 0.03 µM) 95.8% and 95.1% and 102%; (compound 0.0949 µM) 47.7% and 63.8% and 60.6%; (compound 0.3 µM) 22.9% and 31% and 24.5%; (compound 0.949 µM) 4.99% and 4.88% and 4.46%; (compound 3 µM) 3.39% and 2.12% and 2.52%. The concentration for half-maximal inhibition (IC50) (curve of compound) is 104 nM and 156 nM and 140 nM.
For the compound `Cn1ncnc1[C@H]1c2n[nH]c(=O)c3cc(F)cc(c23)N[C@@H]1c1ccc(F)cc1`, the viability, T/C reads like this: (compound 0.00949 µM) 14.8% and 59.6% and 24.1%; (compound 0.03 µM) 8.09% and 8.06% and 12.8%; (compound 0.0949 µM) 6.33% and 7.52% and 10%; (compound 0.3 µM) 6.84% and 6.92% and 9.12%; (compound 0.949 µM) 5.82% and 8.51% and 7.74%; (compound 3 µM) 6.37% and 7.94% and 7.04%. Under “curve of compound”, the IC50 is < 9.49 nM and 11.8 nM.
On to `O=C(c1cc(Cc2n[nH]c(=O)c3ccccc23)ccc1F)N1CCN(C(=O)C2CC2)CC1`, for which the viability, T/C by setting is: (compound 0.0949 µM) 90.1% and 105% and 85.6%; (compound 0.3 µM) 61.4% and 93.6% and 95.1%; (compound 0.949 µM) 71.1% and 82% and 81.4%; (compound 3 µM) 51.2% and 34.2% and 52.1%; (compound 9.49 µM) 30.8% and 7.1% and 16.9%. The 50% inhibitory concentration (IC50) (curve of compound) is 3090 nM and 2030 nM and 3150 nM.
As to `[2H]c1nc(C)nc([2H])c1-c1cc(NC[C@@H](C)c2cccc3c(C(=O)NC)ccnc23)ncn1`, the viability, T/C (compound 0.0316 µM) was 94% and 100% and 109%; the viability, T/C (compound 0.1 µM) was 99.8% and 100% and 112%; the viability, T/C (compound 0.316 µM) is 91.7% and 123%; the viability, T/C (compound 1 µM) was 88.7% and 104% and 94.6%; the viability, T/C (compound 3.16 µM) is 71.9% and 105% and 111%; the viability, T/C (compound 10 µM) is 99.7% and 92.6% and 95.8%. For the same compound, where the note is “compound 0.316 µM”, the result was inactive. For the setting “curve of compound”, the half-maximal inhibitory concentration (IC50) is over 10000 nM.
